We go through 13 molecules from BindingDB's records for doi:10.1021/jm00007a013 (Chul Research Center, 1995).

This test can be described thus: In vitro inhibition of DHT (dihydrotestosterone) on proliferation of androgen-sensitive cancer Schionogi (SC-3) cells.
On to `CCCCCCCN(C=O)[C@H]1CCC2C3CC[C@H]4N(C)C(=O)CC[C@]4(C)C3CC[C@@]21C` (stereo partly drawn) [N-Heptyl-N-((4aR,6aS,7S,11aR)-1,4a,6a-trimethyl-2-oxo-hexadecahydro-indeno[5,4-f]quinolin-7-yl)-formamide], for which half-maximal inhibition (IC50) required 0.058 µM.

`CC(C)CCN(C=O)[C@H]1CCC2C3CC[C@H]4N(C)C(=O)CC[C@]4(C)C3CC[C@@]21C` (stereo partly drawn) [N-(3-Methyl-butyl)-N-((4aR,6aS,7S,11aR)-1,4a,6a-trimethyl-2-oxo-hexadecahydro-indeno[5,4-f]quinolin-7-yl)-formamide] had an IC50 of 0.046 µM.

`CCCCCCCCN(C=O)[C@H]1CCC2C3CC[C@H]4N(C)C(=O)CC[C@]4(C)C3CC[C@@]21C` (stereo partly drawn) [N-Octyl-N-((4aR,6aS,7S,11aR)-1,4a,6a-trimethyl-2-oxo-hexadecahydro-indeno[5,4-f]quinolin-7-yl)-formamide]: half-maximal inhibition (IC50) required 0.05 µM.

`CCN(CC)C(=O)[C@H]1CCC2C3CC[C@H]4N(C)C(=O)CC[C@]4(C)C3CC[C@@]21C` (stereo partly drawn) [(4aR,6aS,7S,11aR)-1,4a,6a-Trimethyl-2-oxo-hexadecahydro-indeno[5,4-f]quinoline-7-carboxylic acid diethylamide] had an IC50 of 0.463 µM.

For the molecule `CCCCN(C=O)[C@H]1CCC2C3CC[C@H]4N(C)C(=O)CC[C@]4(C)C3CC[C@@]21C` (stereo partly drawn) [N-Butyl-N-((4aR,6aS,7S,11aR)-1,4a,6a-trimethyl-2-oxo-hexadecahydro-indeno[5,4-f]quinolin-7-yl)-formamide], 0.166 µM corresponded to half-maximal inhibition (IC50).

The molecule `CCCN(C=O)[C@H]1CCC2C3CC[C@H]4N(C)C(=O)CC[C@]4(C)C3CC[C@@]21C` (stereo partly drawn) [N-Propyl-N-((4aR,6aS,7S,11aR)-1,4a,6a-trimethyl-2-oxo-hexadecahydro-indeno[5,4-f]quinolin-7-yl)-formamide] displayed an IC50 of 0.989 µM.

In turn, `CCC(CC)N(C=O)[C@H]1CCC2C3CC[C@H]4N(C)C(=O)CC[C@]4(C)C3CC[C@@]21C` (stereo partly drawn) [N-(1-Ethyl-propyl)-N-((4aR,6aS,7S,11aR)-1,4a,6a-trimethyl-2-oxo-hexadecahydro-indeno[5,4-f]quinolin-7-yl)-formamide] displayed an IC50 of 0.09 µM.

`CCCCCCN(C=O)[C@H]1CCC2C3CC[C@H]4N(C)C(=O)CC[C@]4(C)C3CC[C@@]21C` (stereo partly drawn) [N-Hexyl-N-((4aR,6aS,7S,11aR)-1,4a,6a-trimethyl-2-oxo-hexadecahydro-indeno[5,4-f]quinolin-7-yl)-formamide] displayed an IC50 of 0.089 µM.

As to `CC(C)CN(C=O)[C@H]1CCC2C3CC[C@H]4N(C)C(=O)CC[C@]4(C)C3CC[C@@]21C` (stereo partly drawn) [N-Isobutyl-N-((4aR,6aS,7S,11aR)-1,4a,6a-trimethyl-2-oxo-hexadecahydro-indeno[5,4-f]quinolin-7-yl)-formamide], the IC50 came to 0.994 µM.

Regarding `CC(C)N(C=O)[C@H]1CCC2C3CC[C@H]4N(C)C(=O)CC[C@]4(C)C3CC[C@@]21C` (stereo partly drawn) [N-Isopropyl-N-((4aR,6aS,7S,11aR)-1,4a,6a-trimethyl-2-oxo-hexadecahydro-indeno[5,4-f]quinolin-7-yl)-formamide], 0.162 µM corresponded to half-maximal inhibition (IC50).

The molecule `CN(C=O)[C@H]1CCC2C3CC[C@H]4N(C)C(=O)CC[C@]4(C)C3CC[C@@]21C` (stereo partly drawn) [N-Methyl-N-((4aR,6aS,7S,11aR)-1,4a,6a-trimethyl-2-oxo-hexadecahydro-indeno[5,4-f]quinolin-7-yl)-formamide] showed an IC50 of 1.48 µM.

As for `CN1C(=O)CC[C@]2(C)C3CC[C@@]4(C)C(CC[C@@H]4N(C=O)CCC(C)(C)C)C3CC[C@@H]12` (stereo partly drawn) [N-(3,3-Dimethyl-butyl)-N-((4aR,6aS,7S,11aR)-1,4a,6a-trimethyl-2-oxo-hexadecahydro-indeno[5,4-f]quinolin-7-yl)-formamide], 0.171 µM corresponded to half-maximal inhibition (IC50).

As to `CCCCCN(C=O)[C@H]1CCC2C3CC[C@H]4N(C)C(=O)CC[C@]4(C)C3CC[C@@]21C` (stereo partly drawn) [N-Pentyl-N-((4aR,6aS,7S,11aR)-1,4a,6a-trimethyl-2-oxo-hexadecahydro-indeno[5,4-f]quinolin-7-yl)-formamide], inhibition was half-maximal at 0.096 µM (IC50).
